In ChEMBL document CHEMBL5046303, “Discovery of TAK-925 as a Potent, Selective, and Brain-Penetrant Orexin 2 Receptor Agonist” (ACS Med Chem Lett, 2022):
Active and inactive are the calls of the source. The calls are words filed in the database; no cut-off is given here.

Columns and labels:
[1] = test system: Mus musculus; assay: Sleep modulation activity in ICR mouse assessed as increase in time spent in wakefulness at 3 mg/kg, sc administered at zeitgeber time 5 measured after 3 hrs post injection; assay type: functional, organism-based
[2] = molecular target: T1, Orexin receptor type 2 (Homo sapiens, UniProt O43614); assay: Agonist activity at human OX2R expressed in CHO-K1 cells by FLIPR calcium flux assay; assay type: functional, cell-based
T1 sequence (O43614 whole entry): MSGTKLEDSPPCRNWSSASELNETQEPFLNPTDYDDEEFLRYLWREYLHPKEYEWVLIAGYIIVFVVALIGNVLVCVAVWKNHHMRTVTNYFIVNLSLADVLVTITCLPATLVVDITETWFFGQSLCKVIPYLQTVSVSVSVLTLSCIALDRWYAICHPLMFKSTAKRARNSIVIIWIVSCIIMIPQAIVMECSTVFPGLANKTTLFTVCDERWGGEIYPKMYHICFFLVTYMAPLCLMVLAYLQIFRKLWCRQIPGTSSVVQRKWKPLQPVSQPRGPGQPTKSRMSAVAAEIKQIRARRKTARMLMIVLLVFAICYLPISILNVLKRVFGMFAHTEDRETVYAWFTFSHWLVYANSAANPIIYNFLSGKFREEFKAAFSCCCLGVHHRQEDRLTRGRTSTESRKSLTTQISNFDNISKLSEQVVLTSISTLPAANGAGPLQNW

| EC50 [2] | SMILES | Activity [1] |
| --- | --- | --- |
| – | COC(=O)N1CCC[C@H](NS(C)(=O)=O)[C@@H]1CO[C@H]1CC[C@@H](c2ccccc2)CC1 | Active |
| 0.18 nM | CC[C@H](C)[C@H](NC(=O)CNC(=O)[C@H](C)NC(=O)[C@H](C)NC(=O)[C@H](Cc1cnc[nH]1)NC(=O)[C@H](CC(N)=O)NC(=O)CNC(=O)[C@H](C)NC(=O)CNC(=O)[C@H](Cc1cnc[nH]1)NC(=O)[C@H](CC(C)C)NC(=O)[C@H](CC(C)C)NC(=O)[C@H](CCC(=O)O)NC(=O)[C@H](Cc1ccc(O)cc1)NC(=O)[C@H](CC(C)C)NC(=O)[C@H](CCCNC(=N)N)NC(=O)[C@H](CS)NC(=O)[C@H](CO)NC(=O)[C@H](CS)NC(=O)[C@@H](NC(=O)[C@H](CCCCN)NC(=O)[C@H](CCC(N)=O)NC(=O)[C@H](CCCNC(=N)N)NC(=O)[C@H](CS)NC(=O)[C@H](CS)NC(=O)[C@H](CC(=O)O)NC(=O)[C@@H]1CCCN1C(=O)[C@H](CC(C)C)NC(=O)[C@@H]1CCCN1C(=O)[C@@H]1CCC(=O)N1)[C@@H](C)O)C(=O)N[C@@H](CC(C)C)C(=O)N[C@H](C(=O)N[C@@H](CC(C)C)C(=O)O)[C@@H](C)O | – |
